This note sets out measurements from patent publication US11858941B2, “Heterocyclic and heteroaryl compounds for treating Huntington's disease” (PTC THERAPEUTICS, INC., priority 2018, dated 2024).

The subject of the experiment is Endogenous Huntingtin Protein. The experiment is described as follows: Endogenous Huntingtin Protein Assay (Meso Scale Discovery ELISA-based electrochemiluminescence). Format: cell-based. The conditions noted are these: MSD plates coated with MW1 (expanded polyglutamine) or MAB2166 capture antibody; lysates. A digest of the protocol:
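MSD electrochemiluminescence sandwich ELISA: MW1 (expanded polyQ) or MAB2166 capture antibody at 1 μg/mL, samples incubated overnight at 4° C. Detection with rabbit monoclonal #5656S then SULFO-TAG anti-rabbit antibody, each 0.25 μg/mL for 1 h at room temperature.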
Take `Oc1cc(-c2cn[nH]c2)ccc1-c1cc2scc(C3=CC4COCC(C3)N4)c2nn1` (stereo not shown) [Cpd 25, 2-[7-(3-oxa-9-azabicyclo[3.3.1]non-6-en-7-yl)thieno[3,2-c]pyridazin-3-yl]-5-(1H-pyrazol-4-yl)phenol]: the IC50 (commonly the midpoint of a concentration-inhibition curve) was at most 100 nM. The compound `CC1(C)CC(n2nnc3cc(-c4ccc(-c5nccs5)cc4O)nnc32)CC(C)(C)N1` [Cpd 96, 2-[3-(2,2,6,6-tetramethylpiperidin-4-yl)-3H-[1,2,3]triazolo[4,5-c]pyridazin-6-yl]-5-(1,3-thiazol-2-yl)phenol] registered an IC50 of at most 100 nM. The value for `Oc1cc(-c2cn[nH]c2)ccc1-c1cc2scc(C3=CC4CCC(C3)N4)c2nn1` (stereo not shown) [Cpd 18, 2-[7-(8-azabicyclo[3.2.1]oct-2-en-3-yl)thieno[3,2-c]pyridazin-3-yl]-5-(1H-pyrazol-4-yl)phenol] was at most 100 nM; that for `CC1(C)CC(n2cnc3cc(-c4cc(F)c(-c5cn[nH]c5)cc4F)nnc32)CC(C)(C)N1` [Cpd 4, 3-[2,5-difluoro-4-(1H-pyrazol-4-yl)phenyl]-7-(2,2,6,6-tetramethylpiperidin-4-yl)-7H-imidazo[4,5-c]pyridazine] was at most 100 nM; that for `Cc1nc2cc(-c3ccc(-c4cn[nH]c4)cc3O)nnc2n1C1CC(C)(C)NC(C)(C)C1` [Cpd 5, 2-[6-methyl-7-(2,2,6,6-tetramethylpiperidin-4-yl)-7H-imidazo[4,5-c]pyridazin-3-yl]-5-(1H-pyrazol-4-yl)phenol] was at most 100 nM. The value for `CC1(C)CC(n2nnc3cc(-c4ccc(-c5c[nH]nc5Br)cc4O)nnc32)CC(C)(C)N1` [Cpd 137, 5-(3-bromo-1H-pyrazol-4-yl)-2-[3-(2,2,6,6-tetramethylpiperidin-4-yl)-3H-[1,2,3]triazolo[4,5-c]pyridazin-6-yl]phenol] was at most 100 nM; that for `CC1(C)CC(n2cnc3cc(-c4ncc(-c5cn[nH]c5)cc4O)nnc32)CC(C)(C)N1` [Cpd 141, 5-(1H-pyrazol-4-yl)-2-[7-(2,2,6,6-tetramethylpiperidin-4-yl)-7H-imidazo[4,5-c]pyridazin-3-yl]pyridin-3-ol] was at most 100 nM.
